From US6589963B2, “Heterocyclic compounds and salts thereof and medicinal use of the same” (Kyoto Pharmaceutical Industries, Ltd., priority 1999, dated 2003)

Experiments:
male KK-A^y mice [1] = experiment: Hypoglycemic action (method A); assay type: in vivo, mouse; details: 4 consecutive days, non-fasting, about 24 hours after final administration, vs control group
Procedure: (§1) The glucose level in the plasma was measured using a commercially available assay kit (glucose CII-test WAKO, Wako Pure Chemical Industries, Ltd.). The mice were grouped (5 mice per group) into a control group and an administration group, such that the mean and the standard deviation of the glucose level in the plasma of each group were nearly the same. Each test compound was suspended or dissolved in 5% gum arabic solution and administered orally to the administration group for 4 consecutive days from the next day. The 5% gum arabic solution was orally administered to the control group. Blood was drawn from the tail vein under a non-fasting state about 24 hours after the final administration and the glucose level in the plasma was measured. The decrease in the plasma glucose level was calculated from the following formula.
Decrease (%) in plasma glucose level=[(mean plasma glucose level of control group−mean plasma glucose level of test compound administration group)/mean plasma glucose level of control group]×100

male KK-A^y mice [2] = experiment: Hypotriglyceridemic action; assay type: in vivo, mouse; details: 4 consecutive days, non-fasting, about 24 hours after final administration, vs control group
Procedure: as §1, with “triglyceride” for “glucose”, “(triglyceride G-test” for “(glucose CII-test”
Decrease (%) in plasma triglyceride level=[(mean plasma triglyceride level of control group−mean plasma triglyceride level of test compound administration group)/mean plasma triglyceride level of control group]×100

## 7-[2-(5-Methyl-2-phenyloxazol-4-yl)ethoxy]-2-(4-pentenoyl)-1,2,3,4-tetrahydroisoquinoline-(3S)-carboxylic acid [Example 44]
Male KK-A^y mice [1]; dose 30 mg/kg orally
  Decrease (%) in plasma glucose level: 48.0%
Male KK-A^y mice [2]; dose 30 mg/kg orally
  Decrease (%) in plasma triglyceride level: 19.1%

## Cc1oc(-c2ccccc2)nc1CCOc1ccc2c(c1)CC(C(=O)O)N(Cc1ccccc1)C2 (racemic) [Example 72, 2-Benzyl-6-[2-(5-methyl-2-phenyloxazol-4-yl)ethoxy]-1,2,3,4-tetrahydroisoquinoline-(3RS)-carboxylic acid]
Male KK-A^y mice [1]; dose 30 mg/kg orally
  Decrease (%) in plasma glucose level: 15.9%
Male KK-A^y mice [2]; dose 30 mg/kg orally
  Decrease (%) in plasma triglyceride level: 24.0%

## CC(=O)N1Cc2cc(OCCc3nc(-c4ccccc4)oc3C)ccc2C[C@H]1C(=O)O [Example 3, 2-Acetyl-7-[2-(5-methyl-2-phenyloxazol-4-yl)ethoxy]-1,2,3,4-tetrahydroisoquinoline-(3S)-carboxylic acid]
Male KK-A^y mice [1]; dose 30 mg/kg orally
  Decrease (%) in plasma glucose level: 11.8%

## Cc1oc(-c2ccccc2)nc1CCOc1ccc2c(c1)CN(C)[C@H](C(=O)O)C2 [Example 4, 2-Methyl-7-[2-(5-methyl-2-phenyloxazol-4-yl)ethoxy]-1,2,3,4-tetrahydroisoquinoline-(3S)-carboxylic acid]
Male KK-A^y mice [2]; dose 10 mg/kg orally
  Decrease (%) in plasma triglyceride level: 14.3%

## CCCCCCN1Cc2cc(OCCc3nc(-c4ccccc4)oc3C)ccc2C[C@H]1C(=O)O [Example 6]
Male KK-A^y mice [1]; dose 10 mg/kg orally
  Decrease (%) in plasma glucose level: 10.7%
Male KK-A^y mice [1]; dose 30 mg/kg orally
  Decrease (%) in plasma glucose level: 12.2%

## Cc1oc(-c2ccccc2)nc1CCOc1ccc2c(c1)CN(CC(C)C)[C@H](C(=O)O)C2 [Example 7, 2-Isobutyl-7-[2-(5-methyl-2-phenyloxazol-4-yl)ethoxy]-1,2,3,4-tetrahydroisoquinoline-(3S)-carboxylic acid]
Male KK-A^y mice [1]; dose 10 mg/kg orally
  Decrease (%) in plasma glucose level: 11.4%
Male KK-A^y mice [1]; dose 30 mg/kg orally
  Decrease (%) in plasma glucose level: 17.4%

## Cc1oc(-c2ccccc2)nc1CCOc1ccc2c(c1)CN(CCCc1ccccc1)[C@H](C(=O)O)C2 [Example 9, 7-[2-(5-Methyl-2-phenyloxazol-4-yl)ethoxy]-2-(3-phenylpropyl)-1,2,3,4-tetrahydroisoquinoline-(3S)-carboxylic acid]
Male KK-A^y mice [1]; dose 30 mg/kg orally
  Decrease (%) in plasma glucose level: 20.3%

## CN(CCOc1ccc2c(c1)CN(Cc1ccccc1)[C@H](C(=O)[O-])C2)c1ccccn1.[Na+] [Example 11, Sodium 2-benzyl-7-[2-(N-methyl-N-(pyridin-2-yl)amino)ethoxy]-1,2,3,4-tetrahydroisoquinoline-(3S)-carboxylate]
Male KK-A^y mice [2]; dose 10 mg/kg orally
  Decrease (%) in plasma triglyceride level: 11.2%

## CCc1ccc(CCOc2ccc3c(c2)CN(Cc2ccccc2)[C@H](C(=O)[O-])C3)nc1.[Na+] [Example 12, Sodium 2-benzyl-7-[2-(5-ethyl-pyridin-2-yl)ethoxy]1,2,3,4-tetrahydroisoquinoline-(3S)-carboxylate]
Male KK-A^y mice [1]; dose 10 mg/kg orally
  Decrease (%) in plasma glucose level: 12.0%
Male KK-A^y mice [2]; dose 10 mg/kg orally
  Decrease (%) in plasma triglyceride level: 22.9%

## Cc1ccc(CN2Cc3cc(OCCc4nc(-c5ccccc5)oc4C)ccc3C[C@H]2C(=O)O)cc1 [Example 18, 2-(4-Methylbenzyl)-7-[2-(5-methyl-2-phenyloxazol-4-yl)ethoxy]-1,2,3,4-tetrahydroisoquinoline-(3S)-carboxylic acid]
Male KK-A^y mice [1]; dose 30 mg/kg orally
  Decrease (%) in plasma glucose level: 39.7%
Male KK-A^y mice [2]; dose 30 mg/kg orally
  Decrease (%) in plasma triglyceride level: 45.5%

## Cc1oc(C(C)C)nc1CCOc1ccc2c(c1)CN(Cc1ccccc1)[C@H](C(=O)O)C2 [Example 34, 2-Benzyl-7-[2-(5-methyl-2-isopropyloxazol-4-yl)ethoxy]-1,2,3,4-tetrahydroisoquinoline-(3S)-carboxylic acid]
Male KK-A^y mice [1]; dose 30 mg/kg orally
  Decrease (%) in plasma glucose level: 23.5%
Male KK-A^y mice [2]; dose 30 mg/kg orally
  Decrease (%) in plasma triglyceride level: 17.3%

## CCCCN1Cc2cc(OCCc3nc(-c4ccccc4)oc3C)ccc2C[C@H]1C(=O)O [Example 35, 2-Butyl-7-[2-(5-methyl-2-phenyloxazol-4-yl)ethoxy]-1,2,3,4-tetrahydroisoquinoline-(3S)-carboxylic acid]
Male KK-A^y mice [1]; dose 30 mg/kg orally
  Decrease (%) in plasma glucose level: 22.1%
Male KK-A^y mice [2]; dose 30 mg/kg orally
  Decrease (%) in plasma triglyceride level: 12.4%

## CC(C)=Cc1nc(CCOc2ccc3c(c2)CN(Cc2ccccc2)[C@H](C(=O)O)C3)c(C)o1 [Example 36, 2-Benzyl-7-{2-[5-methyl-2-(2-methylpropenyl)oxazol-4-yl]ethoxy}-1,2,3,4-tetrahydroisoquinoline-(3S)-carboxylic acid]
Male KK-A^y mice [1]; dose 30 mg/kg orally
  Decrease (%) in plasma glucose level: 28.4%
Male KK-A^y mice [2]; dose 30 mg/kg orally
  Decrease (%) in plasma triglyceride level: 13.7%

## C=CCN1Cc2cc(OCCc3nc(-c4ccccc4)oc3C)ccc2C[C@H]1C(=O)O [Example 38, 2-Allyl-7-[2-(5-methyl-2-phenyloxazol-4-yl)ethoxy]-1,2,3,4-tetrahydroisoquinoline-(3S)-carboxylic acid]
Male KK-A^y mice [1]; dose 30 mg/kg orally
  Decrease (%) in plasma glucose level: 28.0%
Male KK-A^y mice [2]; dose 30 mg/kg orally
  Decrease (%) in plasma triglyceride level: 30.0%

## O=C(O)[C@@H]1Cc2ccc(OCCC3CNc4ccccc43)cc2CN1Cc1ccccc1 (stereo partly drawn) [Example 41, 2-Benzyl-7-[(indolin-3-yl)ethoxy]-1,2,3,4-tetrahydroisoquinoline-(3S)-carboxylic acid]
Male KK-A^y mice [1]; dose 30 mg/kg orally
  Decrease (%) in plasma glucose level: 11.1%

## CCCCC(=O)N1Cc2cc(OCCc3nc(-c4ccccc4)oc3C)ccc2C[C@H]1C(=O)O [Example 43, 7-[2-(5-Methyl-2-phenyloxazol-4-yl)ethoxy]-2-pentanoyl-1,2,3,4-tetrahydroisoquinoline-(3S)-carboxylic acid]
Male KK-A^y mice [1]; dose 30 mg/kg orally
  Decrease (%) in plasma glucose level: 27.5%
Male KK-A^y mice [2]; dose 30 mg/kg orally
  Decrease (%) in plasma triglyceride level: 20.9%

## CC(C)=CC(=O)N1Cc2cc(OCCc3nc(-c4ccccc4)oc3C)ccc2C[C@H]1C(=O)O [Example 45, 2-(3-Methyl-2-butenoyl)-7-[2-(5-methyl-2-phenyloxazol-4-yl)ethoxy]-1,2,3,4-tetrahydroisoquinoline-(3S)-carboxylic acid]
Male KK-A^y mice [1]; dose 30 mg/kg orally
  Decrease (%) in plasma glucose level: 12.6%

## Cc1oc(-c2ccccc2)nc1CCOc1ccc2c(c1)CN(C(=O)CC(C)(C)C)[C@H](C(=O)O)C2 [Example 46, 2-(3,3-Dimethylbutyryl)-7-[2-(5-methyl-2-phenyloxazol-4-yl)ethoxy]-1,2,3,4-tetrahydroisoquinoline-(3S)-carboxylic acid]
Male KK-A^y mice [1]; dose 30 mg/kg orally
  Decrease (%) in plasma glucose level: 28.6%

## Cc1oc(-c2ccccc2)nc1CCOc1ccc2c(c1)CN(Cc1ccccn1)[C@H](C(=O)[O-])C2.[Na+] [Example 48, Sodium 7-[2-(5-methyl-2-phenyloxazol-4-yl)ethoxy]-2-(pyridin-2-ylmethyl)-1,2,3,4-tetrahydroisoquinoline-(3S)-carboxylate]
Male KK-A^y mice [1]; dose 30 mg/kg orally
  Decrease (%) in plasma glucose level: 16.1%

## CC(C)(C)c1nc2cc(COc3ccc4c(c3)CN(Cc3ccccc3)[C@H](C(=O)O)C4)ccc2o1 [Example 53, 2-Benzyl-7-(2-tert-butylbenzoxazol-5-yl)methoxy-1,2,3,4-tetrahydroisoquinoline-(3S)-carboxylic acid]
Male KK-A^y mice [1]; dose 30 mg/kg orally
  Decrease (%) in plasma glucose level: 13.6%

## CC(C)(C)CN1Cc2cc(OCc3ccc4nc(C(C)(C)C)oc4c3)ccc2C[C@H]1C(=O)O [Example 54, 7-(2-tert-Butylbenzoxazol-6-yl)methoxy-2-(2,2-dimethylpropyl)-1,2,3,4-tetrahydroisoquinoline-(3S)-carboxylic acid]
Male KK-A^y mice [1]; dose 30 mg/kg orally
  Decrease (%) in plasma glucose level: 10.8%

## CC(C)c1nc2cc(COc3ccc4c(c3)CN(Cc3ccccc3)[C@H](C(=O)O)C4)ccc2o1 [Example 55, 2-Benzyl-7-(2-isopropylbenzoxazol-5-yl)methoxy-1,2,3,4-tetrahydroisoquinoline-(3S)-carboxylic acid]
Male KK-A^y mice [1]; dose 30 mg/kg orally
  Decrease (%) in plasma glucose level: 13.9%

## Cc1oc(-c2ccccc2)nc1CCOc1ccc2c(c1)CN(Cc1ccncc1)[C@H](C(=O)[O-])C2.[Na+] [Example 56, Sodium 7-[2-(5-methyl-2-phenyloxazol-4-yl)ethoxy]-2-(pyridin-4-ylmethyl)-1,2,3,4-tetrahydroisoquinoline-(3S)-carboxylate]
Male KK-A^y mice [2]; dose 30 mg/kg orally
  Decrease (%) in plasma triglyceride level: 14.0%

## Cc1oc(C2CC2)nc1CCOc1ccc2c(c1)CN(Cc1ccccc1)[C@H](C(=O)O)C2 [Example 59, 2-Benzyl-7-[2-(2-cyclopropyl-5-methyloxazol-4-yl)ethoxy]-1,2,3,4-tetrahydroisoquinoline-(3S)-carboxylic acid]
Male KK-A^y mice [2]; dose 30 mg/kg orally
  Decrease (%) in plasma triglyceride level: 13.7%

## O=C(O)[C@@H]1Cc2ccc(OCCc3cc4ccccc4o3)cc2CN1Cc1ccccc1 [Example 67, 7-[2-(Benzofran-2-yl)ethoxy]-2-benzyl-1,2,3,4-tetrahydroisoquinoline-(3S)-carboxylic acid]
Male KK-A^y mice [1]; dose 30 mg/kg orally
  Decrease (%) in plasma glucose level: 10.6%

## COC(=O)CCC(=O)N1Cc2cc(OCCc3nc(-c4ccccc4)oc3C)ccc2C[C@H]1C(=O)O [Example 70, 2-[3-(Methoxycarbonyl)propionyl]-7-[2-(5-methyl-2-phenyloxazol-4-yl)ethoxy]-1,2,3,4-tetrahydroisoquinoline-(3S)-carboxylic acid]
Male KK-A^y mice [1]; dose 30 mg/kg orally
  Decrease (%) in plasma glucose level: 15.2%

## CCOC(=O)CCCN1Cc2cc(OCCc3nc(-c4ccccc4)oc3C)ccc2C[C@H]1C(=O)O [Example 71, 2-[3-(Ethoxycarbonyl)propyl]-7-[2-(5-methyl-2-phenyloxazol-4-yl)ethoxy]-1,2,3,4-tetrahydroisoquinoline-(3S)-carboxylic acid]
Male KK-A^y mice [1]; dose 30 mg/kg orally
  Decrease (%) in plasma glucose level: 10.5%
